Results reported in PubChem BioAssay (NCI).
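1) Cells in 96-well plates. 2) Compound, 48 h, 5 concentrations. 3) Linear interpolation between surrounding doses. 4) Unreached endpoint = highest concentration. Here, GI50 denotes the concentration required for 50% inhibition of growth. TGI denotes the concentration required for complete inhibition of growth.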

How the values were obtained:
Experiment in all cases: growth of human tumour cells (NCI), 48 h
OVCAR-3 ovarian = test system: OVCAR-3 ovarian
SF-539 CNS = test system: SF-539 CNS
UACC-257 melanoma = test system: UACC-257 melanoma
TK-10 renal = test system: TK-10 renal
HOP-92 NSCLC = test system: HOP-92 NSCLC
786-0 renal = test system: 786-0 renal
HOP-62 NSCLC = test system: HOP-62 NSCLC
UACC-62 melanoma = test system: UACC-62 melanoma
SK-MEL-28 melanoma = test system: SK-MEL-28 melanoma
BT-549 breast = test system: BT-549 breast

Compound | TGI (OVCAR-3 ovarian) [µM] | TGI (SF-539 CNS) [µM] | TGI (UACC-257 melanoma) [µM] | TGI (TK-10 renal) [µM] | TGI (HOP-92 NSCLC) [µM] | TGI (786-0 renal) [µM] | TGI (HOP-62 NSCLC) [µM] | TGI (UACC-62 melanoma) [µM] | TGI (SK-MEL-28 melanoma) [µM] | GI50 (OVCAR-3 ovarian) [µM] | GI50 (SF-539 CNS) [µM] | GI50 (UACC-257 melanoma) [µM] | GI50 (TK-10 renal) [µM] | GI50 (HOP-92 NSCLC) [µM] | GI50 (786-0 renal) [µM] | GI50 (HOP-62 NSCLC) [µM] | GI50 (BT-549 breast) [µM] | TGI (BT-549 breast) [µM] | GI50 (SK-MEL-28 melanoma) [µM] | GI50 (UACC-62 melanoma) [µM]
CCOC(=O)C1=C(OC(OCC)C([Se]c2ccccc2)C(C)C)CCC1 (stereo unspecified) | 40 | 30.8 | 75.4 | > 100 | 51.1 | 20.6 | > 100 | 33.6 | 39.4 |  |  |  |  |  |  |  |  |  |  | 
N#C/C(=C\c1c(O)cc(O)cc1O)C(N)=O | > 100 | > 100 | > 100 | > 100 | > 100 | > 100 | > 100 |  | > 100 |  |  |  |  |  |  |  |  |  |  | 
CCN1CCN(c2nc(C)cc(NCc3cc(Nc4ccnc5cc(Cl)ccc45)ccc3F)n2)CC1 | 4.93 | 3.37 | 3.79 | 6.04 | 4.07 | 3.13 | 4.57 |  | 3.37 | 1.96 | 1.76 | 1.89 | 2.39 | 1.21 | 1.54 | 1.58 | 1.62 | 4.28 | 1.7 | 
COc1cc(C(=O)/C=C/c2cc(-c3ccc4c(c3)OCO4)n[nH]2)cc(OC)c1OC | 3.5 | 2.98 | 9.46 | 7.17 |  | 3.46 | 6.24 | 3.89 | 4.18 | 1.71 | 1.33 | 2.95 | 2.9 |  | 1.84 | 2.32 | 2.02 | 5 | 1.92 | 1.81
CCC12C=CCN(CCc3c([nH]c4ccccc34)/C=C\1)C2 (stereo unspecified) | > 100 | > 100 | > 100 |  |  | > 100 | > 100 | > 100 |  |  |  |  |  |  |  |  |  |  |  | 
CN(C)NC(=O)/C(=C/c1ccc(Cl)cc1)NC(=O)c1ccccc1 | > 100 | > 100 | > 100 | > 100 | > 100 | > 100 | > 100 | > 100 | > 100 |  |  |  |  |  |  |  |  |  |  | 
CC(=Nc1ccc(N(C)C)cc1)c1ccccc1 | 32.2 | > 100 |  | 40.1 |  | 36.2 | > 100 | 33.6 | > 100 |  |  |  |  |  |  |  |  | 33.2 |  | 
O=C(NC1CC1)c1c(O)[nH]c(=S)[nH]c1=O | > 100 | > 100 | > 100 | > 100 | > 100 | > 100 | > 100 | > 100 | > 100 |  |  |  |  |  |  |  |  |  |  | 
COC(=O)c1c(O)ccc(O)c1C(C(C)=O)C(C)=O | > 100 | > 100 | > 100 | > 100 | > 100 | > 100 | > 100 | > 100 | > 100 |  |  |  |  |  |  |  |  |  |  | 
CCOC(=O)c1cc(=O)n(C)c(=O)n1C | > 100 | > 100 | > 100 | > 100 | > 100 | > 100 | > 100 | > 100 | > 100 |  |  |  |  |  |  |  |  |  |  | 
Cc1ccccc1NC(=O)Cc1nc2ccccc2s1 | 32 | 34.7 | 30.8 | 41 |  | 31.6 |  | 35.7 | 32.9 |  |  |  |  |  |  |  |  |  |  | 
Nc1cccc2c1-c1c(cccc1[N+](=O)[O-])C2=O | > 100 | > 100 | > 100 | > 100 | > 100 | > 100 | > 100 | > 100 |  |  |  |  |  |  |  |  |  |  |  | 
CC(C)(C)[Si](C)(C)OCC1OC(n2cnc3c(=O)[nH]cnc32)CC1O (stereo unspecified) | > 100 | > 100 | > 100 | > 100 | > 100 | > 100 | > 100 | > 100 | > 100 |  |  |  |  |  |  |  |  |  |  | 
Cn1[nH]cc2ccc3nc4ccccc4c(=O)c3c21 | > 100 |  | > 74 | 72.2 | > 83 | > 100 | > 83.9 | 26.6 | > 88.5 |  |  |  |  |  |  |  |  |  |  | 
C=CCn1c2ccccc2c2c3c(c4c5ccccc5n(CC=C)c4c21)C(=O)N(O)C3=O | 8.07 |  | 54.6 | 35.7 | 25.5 | 40.4 | 12.7 | 10.5 | > 100 | 2.32 |  | 13.5 | 6.16 | 7.13 | 2.66 | 2.49 | 3.27 | 27.9 | 5.47 | 1.74
C/C=C/C(=O)Oc1cccc2cccnc12 | > 73.6 | 40.1 | 40.9 | > 100 | 57.9 | > 100 | > 100 | > 39.5 | 61.6 |  |  |  |  |  |  |  |  |  |  | 
COC(=O)[C@H](Cc1cn(C)cn1)NC(=O)[C@H](CC(=O)OCc1ccccc1)NC(=O)Nc1cc(C(F)(F)F)cc(C(F)(F)F)c1 | 6.25 | 25.6 | 19.1 |  |  | 24.2 | 16.9 |  | 21.6 | 2.5 | 12.4 | 6.34 |  |  | 10.9 | 5.03 | 12 | 25.8 | 9.51 | 
CN(C)NC1=C([N+](=O)[O-])C=NN(c2ccccc2)C1 | 3.29 | 3.31 | 3.57 | 11.8 | 3.76 | 3.24 | 4.33 | 3.14 | 3.21 |  |  |  |  |  |  |  |  |  |  | 
O=C(O)c1ccc2c(c1)C(=O)N(c1ccc(S(=O)(=O)c3ccc(N4C(=O)c5ccc(C(=O)O)cc5C4=O)cc3)cc1)C2=O | > 100 | > 100 | > 100 | > 100 |  | > 100 | > 100 | > 100 | > 100 |  |  |  |  |  |  |  |  |  |  | 
O=c1nc2sc3ccccc3c(=O)n2[nH]1 | > 100 | > 100 | > 100 | > 100 | > 100 | > 100 | > 100 | > 100 | > 100 |  |  |  |  |  |  |  |  |  |  | 
COc1ccc(CN2C(=O)[C@@H]3Cc4c(OC)c(C)c(OC)c(OC)c4[C@H](/C2=C\c2cc(OC)c(OC)c(C)c2OC)N3C(=O)OC(C)C)cc1 | > 100 | > 100 | > 100 | > 100 | > 100 | > 100 | > 100 | > 100 | > 100 |  |  |  |  |  |  |  |  |  |  | 
